Results taken from patent US5219884A, “Immunosuppressant” (Taito Co., Ltd., priority 1990, dated 1993).

Tests used:
[1] = test system: allo-reactive cytotoxic T cells (EL4 target cells); experiment: suppression of allo-reactive cytotoxic T cells induced by immunization of mouse with allogenic cells; assay type: in vivo; conditions: 0.1 mg/kg/day i.p., 6 times
Method: Male BALB/c mice were immunized with spleen cells of C57BL/6 mice (5×10^7 cells/mouse, intraperitoneal administration), and ISP-I in Example 1 was administered intraperitoneally 6 times at the doses of 0.1 mg/kg/day from the next day of immunization. Eight days after immunization, the spleen was resected to prepare effector cells, with which the ^51 Cr release test was carried out as in Experimental Example 3, using EL4 cells as the target cells to measure the cytotoxic activity.

[2] = test system: interleukin 6 (IL6) response of mouse spleen cells; experiment: suppression of interleukin 6 (IL6) response of mouse spleen cells (plaque assay); assay type: cell-based
Method: The spleen was resected from 8-week-old male BALB/c mice, and single cell suspension in the serum-free RPMI1640 culture medium was prepared, and thereafter cell pellets were obtained by centrifugation (1000 rpm, 5 minutes) of the suspension. Then a mixture of 9 parts of a 0.16 M ammonium chloride solution and 1 part of a 0.17 M Tris solution (pH 7.65) was added to lyse red blood cells, and the suspension was washed three times with the serum-free RPMI1640 culture medium. The obtained cells were suspended to the concentration of 5×10^6 cells/ml in the RPMI1640 culture medium supplemented with 20% FCS, 5×10^-5 M 2-mercaptoethanol, 2×10^-3 M L glutamine, 1×10^-3 sodium pyruvate and 25% of the supernatant of the culture of T24 human bladder carcinoma cell line as a source of interluekin 6. One hundred μl of this cell suspension and 100 μl of the test substance were mixed in each well of 96-well microculture plates, and cultured at 37° C. in an atmosphere of 5% carbon dioxide for 72 hours. After termination of the culture, 50 μl of the cell suspension was collected from each well. Three hundred μl of the RPMI1640 culture medium supplemented with 0.7% agarose gel, 20 μl of physiological saline containing 40% protein A-bound sheep red blood cells and 20 μl of 300-fold dilution of anti-mouse IgG anti-serum diluted in physiological saline were mixed in a test tube, and extended uniformly on Rohduck plates (Falcon Co. 1034). After gel formation by keeping still at room temperature for a few minutes, the plates were cultured at 37° C. in an atmosphere of 5% carbon dioxide for about 4 hours.
Three hundred μl of a 40-fold dilution of guinea pig complement in the serum-free RPMI1640 culture medium was added to each plate, which was then incubated for further 2 hours. The number of plaques formed was counted under stereoscopic microscope.
SD in the Table means standard deviation. The percent suppression (%) was calculated by the following formula. [formula]

[3] = test system: interleukin 2 receptor (IL-2R, Tac) expression in mouse allogenic MLC; experiment: suppression of induction of IL-2R (Tac) expression in mouse allogenic MLC; assay type: cell-based
Method: (§1) Mouse allogenic MLC and PHA-stimulated mouse spleen cells were prepared in the same as in Experimental Example 3.
(§2) The IL-2R (Tac) induced in mouse allogenic MLC and PHA-stimulated mouse spleen cells was assayed as follows:
(§3) After culturing the mouse allogenic MLC and the PHA-stimulated mouse spleen cells at 37° C. in an atmosphere of 5% carbon dioxide for 24 hours, the cells were collected by centrifugation (1000 rpm, 5 minutes, 4° C.), and about 10^6 cells were cultured in 10 μl of phosphate buffered saline (PBS), to which 0.02% sodium azide-containing rat anti-mouse IL-2R monoclonal antibody (manufactured by Boehringer Co., 40 μg/ml) had been added, for 30 minutes with ice-cooling. After washing three times with ice-cooled PBS containing 0.02% sodium azide, 50 μl of fluorescein isothiocyanate (FITC)-labeled goat anti-rat immunoglobulin G antibody was added and cultured for 30 minutes with ice-cooling. To the cell pellet after washing three times with ice-cooled 0.02% sodium azide-added PBS was added, a few drops of PBS containing 0.2% sodium azide and 50% glycerin. Prepared specimens on non-fluorescent slide glasses were made and the IL-2R positive cells were counted under a fluorescent microscope to determine the ratio of numbers of IL-2R positive cells in the total numbers of the cells.

[4] = test system: interleukin 1 (IL1) response of mouse thymocytes; experiment: suppression of interleukin 1 (IL1) response of mouse thymocytes; assay type: cell-based; conditions: PHA + IL1
Method: The thymus was resected from 7-week-old male C3H/HeN mice, and single cell suspension was prepared using the serum-free RPMI1640 culture medium. After three times washing with the medium, the cells were suspended to a concentration of 1.5×10^7 cells/ml in the RPMI1640 culture medium supplemented with 20% fetal calf serum, 5×10^-5 M 2-mercaptoethanol, 2×10^-3 M L-glutamine, 1×10^-3 M sodium pyruvate, 1 μg/ml of phytohemagglutinin (PHA, Wellcome Co., HA16/17) and 2 units/ml of human ultrapure interleukin 1 (Genzyme Co., GUPi-1). One hundred μl of this cell suspension and 100 μl of the solution containing ISP-I were mixed in each well of the 96-well flat-bottomed microculture plate, cultured at 37° C. in an atmosphere of 5% carbon dioxide for 66 hours, and cultured for further 6 hours after addition of 0.5 μCi/well of ^3 H-thymidine. After termination of the culture, the cells in each well were harvested onto a filter by a multiple cell harvester, and the radioactivity incorporated into the cells was measured by liquid scintillation method using a toluene-base scintillator.
In the table, SD means standard deviation. The percent suppression (%) was calculated by the following formulation. [formula]

[5] = test system: interleukin 2 receptor (IL-2R, Tac) expression in PHA-stimulated mouse spleen cells; experiment: suppression of induction of IL-2R (Tac) expression in PHA-stimulated mouse spleen cells; assay type: cell-based
Method: as §1, §2, §3

Structure (SMILES): CCCCCCC(=O)CCCCCC/C=C/CC(O)C(O)C(N)(CO)C(=O)O (centres unmarked) [Example 1]
- Amount of 51Cr release ([1]; effector:target 25:1): 1046 cpm
- Cytotoxic activity ([1]; effector:target 25:1): 5%
- Amount of 51Cr release ([1]; effector:target 50:1): 1258 cpm
- Cytotoxic activity ([1]; effector:target 50:1): 8%
- Amount of 51Cr release ([1]; effector:target 100:1): 1543 cpm
- Cytotoxic activity ([1]; effector:target 100:1): 13%
- Number of plaque ([2]; 0.002 μg/ml): 130 ± 4 plaque/1 × 10^6 cells ± SD
- Number of plaque ([2]; 0.02 μg/ml): 108 ± 10 plaque/1 × 10^6 cells ± SD
- Number of plaque ([2]; 0.2 μg/ml): 78 ± 6 plaque/1 × 10^6 cells ± SD
- Number of plaque ([2]; 2 μg/ml): 60 ± 8 plaque/1 × 10^6 cells ± SD
- inhibition at 0.002 µg/mL ([2]; Mus musculus, 72 h, 0.002 μg/ml): 39.2%
- inhibition at 0.02 µg/mL ([2]; Mus musculus, 72 h, 0.02 μg/ml): 50.5%
- inhibition at 0.2 µg/mL ([2]; Mus musculus, 72 h, 0.2 μg/ml): 66%
- inhibition at 2 µg/mL ([2]; Mus musculus, 72 h, 2 μg/ml): 75.3%
- IL-2R positive cells ([3]; 0.001 μg/ml): 22.4%
- IL-2R positive cells ([3]; 0.01 μg/ml): 17.6%
- IL-2R positive cells ([3]; 0.1 μg/ml): 13.1%
- IL-2R positive cells ([3]; 1 μg/ml): 11.4%
- inhibition at 0.001 µg/mL ([3]; Mus musculus, 24 h, 0.001 μg/ml): 8.2%
- inhibition at 0.01 µg/mL ([3]; Mus musculus, 24 h, 0.01 μg/ml): 27.9%
- inhibition at 0.1 µg/mL ([3]; Mus musculus, 24 h, 0.1 μg/ml): 44.3%
- inhibition at 1 µg/mL ([3]; Mus musculus, 24 h, 1 μg/ml): 53.3%
- inhibition at 0.2 µg/mL ([4]; Mus musculus, Thymocyte, 72 h, 0.2 μg/ml): 83.9%
- inhibition at 2 µg/mL ([4]; Mus musculus, Thymocyte, 72 h, 2 μg/ml): 91.8%
- 3H-thymidine uptake ([4]; 0.2 μg/ml): 4646 ± 826 cpm ± SD
- 3H-thymidine uptake ([4]; 2 μg/ml): 3973 ± 39 cpm ± SD
- IL-2R positive cells ([5]; 0.1 μg/ml): 36.6%
- IL-2R positive cells ([5]; 1 μg/ml): 26.6%
- IL-2R positive cells ([5]; 10 μg/ml): 13.4%
- inhibition at 0.1 µg/mL ([5]; Mus musculus, 24 h, 0.1 μg/ml): 20.8%
- inhibition at 1 µg/mL ([5]; Mus musculus, 24 h, 1 μg/ml): 42.4%
- inhibition at 10 µg/mL ([5]; Mus musculus, 24 h, 10 μg/ml): 71%
